What all share (assay type): cell-based
Experiment [1] deals with T1, Gastrin/cholecystokinin type B receptor (Homo sapiens) (UniProt P32239).
T1 sequence (whole entry): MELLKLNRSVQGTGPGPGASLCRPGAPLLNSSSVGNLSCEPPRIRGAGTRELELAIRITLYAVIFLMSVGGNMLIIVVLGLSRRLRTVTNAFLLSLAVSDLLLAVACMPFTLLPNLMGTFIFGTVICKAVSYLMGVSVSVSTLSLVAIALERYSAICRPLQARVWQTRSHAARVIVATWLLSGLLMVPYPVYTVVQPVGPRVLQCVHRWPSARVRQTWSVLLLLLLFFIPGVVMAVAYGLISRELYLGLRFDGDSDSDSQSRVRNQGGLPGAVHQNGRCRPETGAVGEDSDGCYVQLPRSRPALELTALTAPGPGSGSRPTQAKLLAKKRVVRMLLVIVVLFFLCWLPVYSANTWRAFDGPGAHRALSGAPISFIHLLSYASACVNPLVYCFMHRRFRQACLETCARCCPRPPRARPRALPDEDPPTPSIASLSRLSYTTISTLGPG
In words: Displacement of Eu-DTPA-CCK8 from CCK2 receptor in HEK293 cells after 2 hrs by TRF assay relative to CCK4.

Experiment [2] addresses T2, Gastrin/cholecystokinin type B receptor (Homo sapiens, UniProt P32239).
T2 sequence (P32239 whole entry): T1 sequence (whole entry)
In words: Displacement of Eu-DTPA-CCK8 from CCK2 receptor in HEK293 cells after 2 hrs by TRF assay.

The target in the next experiment is Melanocortin receptor 4 (Homo sapiens, UniProt P32245). In words: Binding affinity to MC4R in HEK293 cells.
Sequence of Melanocortin receptor 4 (P32245 whole entry): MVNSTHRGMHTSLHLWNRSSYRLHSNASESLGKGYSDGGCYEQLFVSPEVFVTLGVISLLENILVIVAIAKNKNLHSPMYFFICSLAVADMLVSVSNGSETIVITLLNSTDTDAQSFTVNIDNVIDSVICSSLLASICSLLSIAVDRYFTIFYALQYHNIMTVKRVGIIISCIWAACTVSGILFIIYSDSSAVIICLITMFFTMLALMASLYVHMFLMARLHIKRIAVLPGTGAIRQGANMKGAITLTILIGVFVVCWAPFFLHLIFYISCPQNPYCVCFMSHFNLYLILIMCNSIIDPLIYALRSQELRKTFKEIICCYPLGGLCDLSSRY

What is called IC50 is the point on the concentration scale where inhibition reaches its midpoint. Low readings indicate greater potency in that assay, high ones weaker potency in that assay. For `C#CCCC(=O)NCCCC[C@H](NC(C)=O)C(=O)N[C@@H](Cc1c[nH]c2ccccc12)C(=O)N(C)[C@@H](CCCC)C(=O)N[C@@H](CC(=O)O)C(=O)N[C@@H](Cc1ccccc1)C(=O)Nc1cn(CC(=O)NCCCC(CCCNC(=O)Cn2cc(NC(=O)[C@H](Cc3ccccc3)NC(=O)[C@H](CC(=O)O)NC(=O)[C@H](CCCC)N(C)C(=O)[C@H](Cc3c[nH]c4ccccc34)NC(=O)[C@H](CCCCNC(=O)CCC#C)NC(C)=O)nn2)(NC(=O)CNC(=O)Cn2cc(NC(=O)[C@H](Cc3ccccc3)NC(=O)[C@H](CC(=O)O)NC(=O)[C@H](CCCC)N(C)C(=O)[C@H](Cc3c[nH]c4ccccc34)NC(=O)[C@H](CCCCNC(=O)CCC#C)NC(C)=O)nn2)C(=O)NCCC(N)=O)nn1`, the fold change (FC) in experiment [1] worked out at 1.5. This molecule had an IC50 in experiment [2] of 12 nM.

As for `C#CCCC(=O)NCCCC[C@H](NC(C)=O)C(=O)N[C@@H](Cc1c[nH]c2ccccc12)C(=O)N(C)[C@@H](CCCC)C(=O)N[C@@H](CC(=O)O)C(=O)N[C@@H](Cc1ccccc1)C(N)=O`, in experiment [2], the IC50 turned out to be 16 nM.

Consider `C#CCCC(=O)NCCCC[C@H](NC(C)=O)C(=O)N[C@@H](Cc1c[nH]c2ccccc12)C(=O)N(C)[C@@H](CCCC)C(=O)N[C@@H](CC(=O)O)C(=O)N[C@@H](Cc1ccccc1)C(=O)Nc1cn(CC(=O)NCC(=O)N2CCC[C@H]2C(=O)NCC(=O)NCCCC(CCCNC(=O)CNC(=O)[C@@H]2CCCN2C(=O)CNC(=O)Cn2cc(NC(=O)[C@H](Cc3ccccc3)NC(=O)[C@H](CC(=O)O)NC(=O)[C@H](CCCC)N(C)C(=O)[C@H](Cc3c[nH]c4ccccc34)NC(=O)[C@H](CCCCNC(=O)CCC#C)NC(C)=O)nn2)(NC(=O)CNC(=O)CNC(=O)[C@@H]2CCCN2C(=O)CNC(=O)Cn2cc(NC(=O)[C@H](Cc3ccccc3)NC(=O)[C@H](CC(=O)O)NC(=O)[C@H](CCCC)N(C)C(=O)[C@H](Cc3c[nH]c4ccccc34)NC(=O)[C@H](CCCCNC(=O)CCC#C)NC(C)=O)nn2)C(=O)NCCC(N)=O)nn1`, for which the fold change (FC) in experiment [1] worked out at 2.5. In addition, the IC50 in experiment [2] stood at 6 nM.

In experiment [1], `C#CCCC(=O)NCCCC[C@H](NC(C)=O)C(=O)N[C@@H](Cc1c[nH]c2ccccc12)C(=O)N(C)[C@@H](CCCC)C(=O)N[C@@H](CC(=O)O)C(=O)N[C@@H](Cc1ccccc1)C(=O)Nc1cn(CC(=O)NCCC(=O)NCCCC(CCCNC(=O)CCNC(=O)Cn2cc(NC(=O)[C@H](Cc3ccccc3)NC(=O)[C@H](CC(=O)O)NC(=O)[C@H](CCCC)N(C)C(=O)[C@H](Cc3c[nH]c4ccccc34)NC(=O)[C@H](CCCCNC(=O)CCC#C)NC(C)=O)nn2)(NC(=O)CNC(=O)CCNC(=O)Cn2cc(NC(=O)[C@H](Cc3ccccc3)NC(=O)[C@H](CC(=O)O)NC(=O)[C@H](CCCC)N(C)C(=O)[C@H](Cc3c[nH]c4ccccc34)NC(=O)[C@H](CCCCNC(=O)CCC#C)NC(C)=O)nn2)C(=O)NCCC(N)=O)nn1` came in with a fold change (FC) of 3. Further, in experiment [2], the IC50 was 5.2 nM.

In the case of `C#CCCC(=O)NCCCC[C@H](NC(C)=O)C(=O)N[C@@H](CO)C(=O)N[C@@H](CCCC)C(=O)N[C@@H](CCC(=O)O)C(=O)N[C@@H](Cc1cnc[nH]1)C(=O)N[C@H](Cc1ccccc1)C(=O)N[C@@H](CCCNC(=N)N)C(=O)N[C@@H](Cc1c[nH]c2ccccc12)C(=O)Nc1cn(CC(=O)NCCCC(CCCNC(=O)Cn2cc(NC(=O)[C@H](Cc3c[nH]c4ccccc34)NC(=O)[C@H](CCCNC(=N)N)NC(=O)[C@@H](Cc3ccccc3)NC(=O)[C@H](Cc3cnc[nH]3)NC(=O)[C@H](CCC(=O)O)NC(=O)[C@H](CCCC)NC(=O)[C@H](CO)NC(=O)[C@H](CCCCNC(=O)CCC#C)NC(C)=O)nn2)(NC(=O)CNC(=O)Cn2cc(NC(=O)[C@H](Cc3c[nH]c4ccccc34)NC(=O)[C@H](CCCNC(=N)N)NC(=O)[C@@H](Cc3ccccc3)NC(=O)[C@H](Cc3cnc[nH]3)NC(=O)[C@H](CCC(=O)O)NC(=O)[C@H](CCCC)NC(=O)[C@H](CO)NC(=O)[C@H](CCCCNC(=O)CCC#C)NC(C)=O)nn2)C(=O)NCCC(N)=O)nn1` (stereo not given in full), the IC50 on Melanocortin receptor 4 was 12 nM.

For `C#CCCC(=O)NCCCC[C@H](NC(C)=O)C(=O)N[C@@H](Cc1c[nH]c2ccccc12)C(=O)N(C)[C@@H](CCCC)C(=O)N[C@@H](CC(=O)O)C(=O)N[C@@H](Cc1ccccc1)C(=O)Nc1cn(CC(=O)NCCC(=O)NCCC(=O)NCCCC(CCCNC(=O)CCNC(=O)CCNC(=O)Cn2cc(NC(=O)[C@H](Cc3ccccc3)NC(=O)[C@H](CC(=O)O)NC(=O)[C@H](CCCC)N(C)C(=O)[C@H](Cc3c[nH]c4ccccc34)NC(=O)[C@H](CCCCNC(=O)CCC#C)NC(C)=O)nn2)(NC(=O)CNC(=O)CCNC(=O)CCNC(=O)Cn2cc(NC(=O)[C@H](Cc3ccccc3)NC(=O)[C@H](CC(=O)O)NC(=O)[C@H](CCCC)N(C)C(=O)[C@H](Cc3c[nH]c4ccccc34)NC(=O)[C@H](CCCCNC(=O)CCC#C)NC(C)=O)nn2)C(=O)NCCC(N)=O)nn1`, in experiment [1], the fold change (FC) amounted to 2. In experiment [2], this molecule returned an IC50 of 8.5 nM.
